Among the data in patent US12581252B2, “Substituted pyrrolo[3,4-b]pyridines as PI3K-α inhibitors” (Relay Therapeutics, Inc., priority 2020, dated 2026) are IC50 values, retold here.

Where only a bound is given, the exact number is not on record here.

The experiment deals with H1047R PIK3CA enzyme (Homo sapiens, UniProt P42336, H1047R). The experiment in a line: ADP-Glo Biochemical PIK3CA Kinase Assay. A general note: ADP-Glo first removes unused ATP, then detects ADP through luciferase.
H1047R PIK3CA enzyme, sequence (P42336 whole entry H1047R): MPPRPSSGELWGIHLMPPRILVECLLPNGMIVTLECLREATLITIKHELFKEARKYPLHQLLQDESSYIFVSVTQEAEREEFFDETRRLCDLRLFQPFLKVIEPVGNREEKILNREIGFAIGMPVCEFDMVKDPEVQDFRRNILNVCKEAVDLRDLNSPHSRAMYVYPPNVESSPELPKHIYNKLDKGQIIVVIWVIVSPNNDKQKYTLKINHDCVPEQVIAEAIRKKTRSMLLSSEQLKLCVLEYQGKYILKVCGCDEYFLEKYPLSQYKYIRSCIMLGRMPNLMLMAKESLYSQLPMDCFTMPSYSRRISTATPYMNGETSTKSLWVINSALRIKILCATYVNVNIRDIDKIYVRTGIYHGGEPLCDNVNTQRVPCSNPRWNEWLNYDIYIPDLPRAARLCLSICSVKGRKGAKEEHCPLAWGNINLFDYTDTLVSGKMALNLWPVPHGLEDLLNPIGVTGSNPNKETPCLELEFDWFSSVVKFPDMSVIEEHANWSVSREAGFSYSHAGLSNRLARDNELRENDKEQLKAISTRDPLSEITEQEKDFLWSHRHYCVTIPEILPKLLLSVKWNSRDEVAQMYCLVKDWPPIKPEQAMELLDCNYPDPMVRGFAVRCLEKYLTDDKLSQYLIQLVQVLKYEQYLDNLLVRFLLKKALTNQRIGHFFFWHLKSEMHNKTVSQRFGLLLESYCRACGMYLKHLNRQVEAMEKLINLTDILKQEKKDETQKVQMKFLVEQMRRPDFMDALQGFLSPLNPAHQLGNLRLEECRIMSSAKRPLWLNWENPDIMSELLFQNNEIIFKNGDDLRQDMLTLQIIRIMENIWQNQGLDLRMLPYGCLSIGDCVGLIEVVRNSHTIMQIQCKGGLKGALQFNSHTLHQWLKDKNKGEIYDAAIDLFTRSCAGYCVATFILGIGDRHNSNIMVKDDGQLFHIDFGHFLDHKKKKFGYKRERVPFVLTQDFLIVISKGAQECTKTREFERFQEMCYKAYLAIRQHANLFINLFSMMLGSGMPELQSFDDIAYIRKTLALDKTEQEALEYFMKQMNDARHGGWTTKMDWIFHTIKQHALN
H1047R PIK3CA enzyme, sequence (P27986 whole entry partner): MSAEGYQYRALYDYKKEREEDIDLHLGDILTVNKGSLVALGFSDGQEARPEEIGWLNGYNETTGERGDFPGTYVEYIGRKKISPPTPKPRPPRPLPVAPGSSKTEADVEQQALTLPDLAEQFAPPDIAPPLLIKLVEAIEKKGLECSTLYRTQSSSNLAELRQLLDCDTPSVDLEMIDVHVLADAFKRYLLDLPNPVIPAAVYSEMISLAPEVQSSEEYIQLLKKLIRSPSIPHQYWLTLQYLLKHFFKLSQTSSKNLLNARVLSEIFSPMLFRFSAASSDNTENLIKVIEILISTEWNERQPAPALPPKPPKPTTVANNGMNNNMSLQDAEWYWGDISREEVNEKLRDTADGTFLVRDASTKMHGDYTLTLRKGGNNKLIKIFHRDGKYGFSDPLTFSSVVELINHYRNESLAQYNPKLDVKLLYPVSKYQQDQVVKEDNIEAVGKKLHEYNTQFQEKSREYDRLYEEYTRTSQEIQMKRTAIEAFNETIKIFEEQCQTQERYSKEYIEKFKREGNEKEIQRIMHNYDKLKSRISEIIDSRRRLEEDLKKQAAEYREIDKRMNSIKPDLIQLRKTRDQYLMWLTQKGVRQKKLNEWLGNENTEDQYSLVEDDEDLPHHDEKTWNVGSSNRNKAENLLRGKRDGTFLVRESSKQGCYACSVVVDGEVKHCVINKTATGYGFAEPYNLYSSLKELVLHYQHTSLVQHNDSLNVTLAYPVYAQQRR
`CC1(Cc2cc(NC(=O)c3cc(F)cc(C(F)(F)F)c3)c3c(c2)C(=O)NC3c2cc(F)ccc2Cl)COC1` (stereo not drawn) [Compound I-710] registered a 50% inhibitory concentration (IC50) of at most 0.1 µM. `COc1cc(C(=O)Nc2cc(Br)cc3c2C(c2cc(F)ccc2Cl)NC3=O)ccc1F` (stereo not drawn) [Compound I-559]: the IC50 was 1 to 10 µM. As to `O=C1NC(c2cc(F)ccc2Cl)c2c(NC(=O)c3ncsc3Br)cccc21` (stereo not drawn) [Compound I-2397], the IC50 is 1 to 10 µM. Take `Cc1ccccc1C1NC(=O)c2cccc(NC(=O)c3nscc3Br)c21` (stereo not drawn) [Compound I-463]: the IC50 was in the range of 1 to 10 µM. The molecule `O=C1N[C@@H](c2cc(F)ccc2Cl)c2c(NC(=O)[C@H]3CCC[C@@H](OC(F)(F)F)C3)cccc21` (single isomer, unassigned) [Compound I-2218] yielded a half-maximal inhibitory concentration (IC50) of 10 to 100 µM.

As for `O=C1N[C@@H](c2cc(F)ccc2Cl)c2c(NC(=O)N3C[C@@H](O)C[C@@H]3CC(F)(F)F)cccc21` (racemic) [Compound I-2164], the IC50 lay in the range of 1 to 10 µM. Then `O=C1NC(c2cc(F)ccc2Cl)c2c(NC(=O)c3cc(F)cc4c(Cl)n[nH]c34)cc(Br)cc21` (stereo not drawn) [Compound I-1686], with 1 to 10 µM; and `O=C1N[C@H](c2cc(F)ccc2Cl)c2c(Nc3nccc4c(C(F)(F)F)cc(F)cc34)cc(Br)cc21` [Compound I-1110], with 1 to 10 µM; and `O=C1NC(c2cc(F)ccc2Cl)c2c(Nc3nc4ccccc4s3)cc(-c3ccc4ncnn4c3)cc21` (stereo not drawn) [Compound I-1659], with 0.1 to 0.5 µM. Molecule `O=C1N[C@H](c2cc(F)ccc2Cl)c2c(NC(=O)N3C[C@@H](O)c4cc(F)ccc43)cc(-n3ccnn3)cc21` (single isomer, unassigned) [Compound I-2371] yielded a half-maximal inhibitory concentration (IC50) of 1 to 10 µM.

The molecule `O=C(Nc1cc(-c2ccnc(C(=O)O)c2)cc2c1C(c1cc(F)ccc1Cl)NC2=O)c1cc(F)cc(C(F)(F)F)c1` (stereo not drawn) [Compound I-2137] returned a concentration for half-maximal inhibition (IC50) of at most 0.1 µM. Take `O=C(Nc1cc(Br)cc2c1C(c1cc(F)ccc1Cl)NC2=O)c1cccc(C(F)(F)F)n1` (stereo not drawn) [Compound I-567]: the IC50 was in the range of 1 to 10 µM.

For the molecule `CN1CCCC(C2NC(=O)c3cccc(NC(=O)c4cc(F)cc(C(F)(F)F)c4)c32)C1` (racemic) [Compound I-1769], the IC50 is 10 to 100 µM. In turn, `O=C(Nc1cc(C2=CN3CCN=C3C=C2)cc2c1[C@@H](c1cc(F)ccc1Cl)NC2=O)c1cc(F)cc(C(F)(F)F)c1` [Compound I-2091] had a half-maximal inhibitory concentration (IC50) of 0.5 to 1 µM.

In turn, `O=C(Nc1cc(OC2CS(=O)(=O)C2)cc2c1C(c1cc(F)ccc1Cl)NC2=O)c1cc(F)cc(C(F)(F)F)c1` (stereo not drawn) [Compound I-1149] registered an IC50 of 1 to 10 µM. Regarding `O=C(Nc1cc(-c2cnc3nccn3c2)cc2c1[C@@H](c1cc(F)ccc1Cl)NC2=O)c1cc(F)cc(C(F)(F)F)c1` [Compound I-883], the IC50 lay within 1 to 10 µM. `O=C1N[C@@H](c2cc(F)ccc2Cl)c2c(N[C@H]3COCc4ccccc43)cc(Br)cc21` (racemic) [Compound I-1893]: the IC50 lay in the range of 10 to 100 µM. In the case of `O=C1NC(c2cc(F)ccc2Cl)c2c(CN3CCCCC3=O)cc(-c3ccc4ncnn4c3)cc21` (stereo not drawn) [Compound I-1999], the IC50 was 10 to 100 µM. With `O=C1N[C@@H](c2cc(F)ccc2Cl)c2c(N[C@@H]3CCOc4ccccc43)cc(Br)cc21` (racemic) [Compound I-2014], the IC50 fell in the range of 10 to 100 µM.

`O=C(Nc1cc(Br)cc2c1C(c1cc(F)ccc1Cl)NC2=O)c1cc(F)ccc1OC(F)(F)F` (stereo not drawn) [Compound I-788] displayed a half-maximal inhibitory concentration (IC50) of 1 to 10 µM.

In turn, `O=C1NC(c2cc(F)ccc2Cl)c2c(NC(=O)N3CCC(C(F)(F)F)C3)cc(-c3ccc4ncnn4c3)cc21` (stereo not drawn) [Compound I-1903] came in with an IC50 of 1 to 10 µM. As for `O=C(Nc1cc(NC(=O)c2cc(F)cc(C(F)(F)F)c2)c2c(c1)C(=O)N[C@H]2c1cc(F)ccc1Cl)c1cccnc1` [Compound I-1477], the 50% inhibitory concentration (IC50) was at most 0.1 µM. `Cn1nccc1-c1cc(NC(=O)c2cc(F)cc(C(F)(F)F)c2)c2c(c1)C(=O)N[C@@H]2c1cc(F)ccc1Cl` [Compound I-1137] displayed a half-inhibitory concentration (IC50) of 1 to 10 µM.

Molecule `O=C(Nc1cc(-c2cnc3ncnn3c2)cc2c1[C@@H](c1cc(F)ccc1Cl)NC2=O)c1cc(F)cc(C(F)(F)F)c1` [Compound I-1023] displayed an IC50 of 0.5 to 1 µM.

In general, IC50 refers to the concentration at which inhibition is half-maximal. Lower therefore signals higher potency.
